Data from patent US9096518B2, “Substituted hydroxamic acids and uses thereof” (Millennium Pharmaceuticals, Inc., priority 2009, dated 2015).

These compounds were tested against T1, purified human HDAC6 (Homo sapiens, UniProt Q9UBN7) (assay: HDAC6 Enzyme Assay).
T1 construct: purchased BPS Bioscience 5006
T1 sequence (Q9UBN7 1-1215): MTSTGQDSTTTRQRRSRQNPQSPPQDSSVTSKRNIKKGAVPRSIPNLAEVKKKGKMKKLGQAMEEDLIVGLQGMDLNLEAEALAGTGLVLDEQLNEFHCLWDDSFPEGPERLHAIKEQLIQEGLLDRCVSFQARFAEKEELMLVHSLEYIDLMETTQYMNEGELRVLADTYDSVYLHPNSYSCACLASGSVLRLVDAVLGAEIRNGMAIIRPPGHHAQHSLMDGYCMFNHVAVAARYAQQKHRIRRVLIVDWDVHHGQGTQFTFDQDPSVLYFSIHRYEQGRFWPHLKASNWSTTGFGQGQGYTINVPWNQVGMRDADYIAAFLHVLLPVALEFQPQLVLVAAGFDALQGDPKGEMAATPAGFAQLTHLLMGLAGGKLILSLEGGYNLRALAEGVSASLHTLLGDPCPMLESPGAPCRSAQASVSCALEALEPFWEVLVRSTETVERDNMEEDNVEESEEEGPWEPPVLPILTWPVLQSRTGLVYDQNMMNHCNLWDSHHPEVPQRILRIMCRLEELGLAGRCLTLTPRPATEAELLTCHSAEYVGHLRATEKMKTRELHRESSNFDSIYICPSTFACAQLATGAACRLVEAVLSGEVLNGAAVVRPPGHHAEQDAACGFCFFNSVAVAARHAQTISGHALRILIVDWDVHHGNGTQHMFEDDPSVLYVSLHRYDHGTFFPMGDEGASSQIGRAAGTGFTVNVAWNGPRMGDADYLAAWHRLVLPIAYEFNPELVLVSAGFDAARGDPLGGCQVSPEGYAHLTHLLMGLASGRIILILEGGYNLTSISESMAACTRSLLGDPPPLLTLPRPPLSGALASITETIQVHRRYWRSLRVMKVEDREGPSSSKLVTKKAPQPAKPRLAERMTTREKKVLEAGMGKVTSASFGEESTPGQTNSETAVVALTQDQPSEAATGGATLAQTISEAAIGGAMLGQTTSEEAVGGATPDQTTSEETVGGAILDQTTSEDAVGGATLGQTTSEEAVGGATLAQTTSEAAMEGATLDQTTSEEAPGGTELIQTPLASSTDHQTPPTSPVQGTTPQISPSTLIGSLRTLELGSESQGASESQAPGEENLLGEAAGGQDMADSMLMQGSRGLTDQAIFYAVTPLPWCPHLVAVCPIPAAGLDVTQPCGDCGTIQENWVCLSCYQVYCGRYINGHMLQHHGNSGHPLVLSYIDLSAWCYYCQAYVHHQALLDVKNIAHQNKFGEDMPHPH
Format: biochemical
Procedure, shortened: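 Purified human HDAC6 incubated 1 h at 30 °C with Ac-Arg-Gly-Lys(Ac)-AMC peptide and compound; reaction stopped with trichostatin A, then trypsin releases AMC, read by fluorescence (Ex 340/Em 460 nm). IC50 from concentration-response curves relative to DMSO controls.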

Compound | IC50 [nM]
O=C(NO)c1ccc2c(c1)CCN(CCCOc1ccccc1)C2 [Compound 67, N-hydroxy-2-(3-phenoxypropyl)-1,2,3,4-tetrahydroisoquinoline-6-carboxamide] | 100 to 500
O=C(NO)c1ccc2c(c1)CCCN(C(=O)c1cc3ccccc3o1)C2 [Compound 250, 2-(1-benzofuran-2-ylcarbonyl)-N-hydroxy-2,3,4,5-tetrahydro-1H-2-benzazepine-7-carboxamide] | < 50
O=C(NO)c1ccc2c(c1)CCN(C(=O)C1CCCCC1)C2 [Compound 5, 2-(cyclohexylcarbonyl)-N-hydroxy-1,2,3,4-tetrahydroisoquinoline-6-carboxamide] | 50 to 100
Cc1cccc(C)c1NC(=O)CN1CCc2cc(C(=O)NO)ccc2C1 [Compound 116, 2-{2-[(2,6-dimethylphenyl)amino]-2-oxoethyl}-N-hydroxy-1,2,3,4-tetrahydroisoquinoline-6-carboxamide] | 50 to 100
O=C(NO)c1ccc2c(c1)CCN(c1nc(-c3cccc(Cl)c3)cs1)C2 [Compound 77, 2-[4-(3-chlorophenyl)-1,3-thiazol-2-yl]-N-hydroxy-1,2,3,4-tetrahydroisoquinoline-6-carboxamide] | < 50
O=C(NO)c1ccc2c(c1)CCCN(C(=O)c1cnc3ccccc3n1)C2 [Compound 243, N-hydroxy-2-(quinoxalin-2-ylcarbonyl)-2,3,4,5-tetrahydro-1H-2-benzazepine-7-carboxamide] | 100 to 500
Cc1noc(C)c1S(=O)(=O)N1CCc2cc(C(=O)NO)ccc2C1 [Compound 53, 2-[(3,5-dimethylisoxazol-4-yl)sulfonyl]-N-hydroxy-1,2,3,4-tetrahydroisoquinoline-6-carboxamide] | 100 to 500
CC1(C(=O)N2CCc3cc(C(=O)NO)ccc3C2)CCCCC1 [Compound 28, N-hydroxy-2-[(1-methylcyclohexyl)carbonyl]-1,2,3,4-tetrahydroisoquinoline-6-carboxamide] | 100 to 500
O=C(NO)c1ccc2c(c1)CCN(S(=O)(=O)c1ccc(F)cc1)C2 [Compound 50, 2-[(4-fluorophenyl)sulfonyl]-N-hydroxy-1,2,3,4-tetrahydroisoquinoline-6-carboxamide] | 100 to 500
Cc1nc(S(=O)(=O)N2CCc3cc(C(=O)NO)ccc3C2)cn1C [Compound 51, 2-[(1,2-dimethyl-1H-imidazol-4-yl)sulfonyl]-N-hydroxy-1,2,3,4-tetrahydroisoquinoline-6-carboxamide] | 100 to 500
O=C(NO)c1ccc2c(c1)CCN(C(=O)c1cc3ccccc3[nH]1)C2 [Compound 8, N-hydroxy-2-(1H-indol-2-ylcarbonyl)-1,2,3,4-tetrahydroisoquinoline-6-carboxamide] | < 50
O=C(NO)c1ccc2c(c1)CCCN(C(=O)c1cnc3ccccc3c1)C2 [Compound 255, N-hydroxy-2-(quinolin-3-ylcarbonyl)-2,3,4,5-tetrahydro-1H-2-benzazepine-7-carboxamide] | 100 to 500
O=C(NO)c1ccc2c(c1)CCN(C(=O)Nc1ccc(OC(F)(F)F)cc1)C2 [Compound 92, N^6-hydroxy-N^2-[4-(trifluoromethoxy)phenyl]-3,4-dihydroisoquinoline-2,6(1H)-dicarboxamide] | < 50
O=C(NO)c1ccc2c(c1)CCN(S(=O)(=O)c1ccc3ccccc3c1)C2 [Compound 47, N-hydroxy-2-(2-naphthylsulfonyl)-1,2,3,4-tetrahydroisoquinoline-6-carboxamide] | < 50
COc1ccc(-c2ccc(S(=O)(=O)N3CCc4cc(C(=O)NO)ccc4C3)cc2)cc1 [Compound 43, N-hydroxy-2-[(4′-methoxybiphenyl-4-yl)sulfonyl]-1,2,3,4-tetrahydroisoquinoline-6-carboxamide] | 50 to 100
CC(C)(C)c1ccc(C(=O)N2CCCc3cc(C(=O)NO)ccc3C2)cc1 [Compound 238, 2-(4-tert-butylbenzoyl)-N-hydroxy-2,3,4,5-tetrahydro-1H-2-benzazepine-7-carboxamide] | 100 to 500
Cc1nc(CC(=O)N2CCc3cc(C(=O)NO)ccc3C2)cs1 [Compound 6, N-hydroxy-2-[(2-methyl-1,3-thiazol-4-yl)acetyl]-1,2,3,4-tetrahydroisoquinoline-6-carboxamide] | 100 to 500
Cc1cc(C)c(C(=O)N2CCCc3cc(C(=O)NO)ccc3C2)c(C)c1 [Compound 259] | > 500
O=C(NO)c1ccc2c(c1)CCCN(C(=O)c1ccc3occc3c1)C2 [Compound 252, 2-(1-benzofuran-5-ylcarbonyl)-N-hydroxy-2,3,4,5-tetrahydro-1H-2-benzazepine-7-carboxamide] | 100 to 500
Cc1noc(C)c1CC(=O)N1CCc2cc(C(=O)NO)ccc2C1 [Compound 16, 2-[(3,5-dimethylisoxazol-4-yl)acetyl]-N-hydroxy-1,2,3,4-tetrahydroisoquinoline-6-carboxamide] | 50 to 100
COc1cccc(CC(=O)N2CCc3cc(C(=O)NO)ccc3C2)c1 [Compound 34, N-hydroxy-2-[(3-methoxyphenyl)acetyl]-1,2,3,4-tetrahydroisoquinoline-6-carboxamide] | 50 to 100
O=C(NO)c1ccc2c(c1)CCN(C(=O)C1CCCC1)C2 [Compound 32, 2-(cyclopentylcarbonyl)-N-hydroxy-1,2,3,4-tetrahydroisoquinoline-6-carboxamide] | < 50
O=C(NO)c1ccc2c(c1)CCN(C(=O)CCn1ccc3ccccc31)C2 [Compound 13, N-hydroxy-2-[3-(1H-indol-1-yl)propanoyl]-1,2,3,4-tetrahydroisoquinoline-6-carboxamide] | > 500
